Test results reported in PubChem BioAssay AID328 (DTP/NCI, 2004).
“And” between values parts separate entries of the source, which are not always exact repeats. Equal values may be shown once. Inconclusive results and toxic doses are left out. Residues, ends and D or L forms follow the SMILES beside them.

Tested on: BDF1 mice, P388 leukemia ip, median survival T/C
Assay: NCI In Vivo Anticancer Drug Screen. Data for tumor model P388 Leukemia (intraperitoneal) in B6D2F1 (BDF1) mice
Conditions: endpoint: median survival time, higher = longer survival
Outline: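 Read-out is survival of treated animals expressed relative to the vehicle group, as a T/C ratio.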

[1] = dose: 25.0 mg/kg/injection, schedule: Q04DX003 (ip), vehicle: saline
[2] = dose: 50.0 mg/kg/injection, schedule: Q04DX003 (ip), vehicle: saline
[3] = dose: 100.0 mg/kg/injection, schedule: Q04DX003 (ip), vehicle: saline

CC(=O)O[C@H]1C(=O)O[C@@H]2C[C@H]3C(C)=CC(=O)[C@@H](O)[C@]3(C)[C@H]3[C@@]4(O)OC[C@]32[C@@H]1[C@@H](C)[C@H]4O
T/C (dose: 0.13 mg/kg/injection, schedule: Q01DX010 (ip), vehicle: alcohol): 227 % of control
T/C (dose: 0.2 mg/kg/injection, schedule: Q01DX010 (ip), vehicle: alcohol): 100 % of control
T/C (dose: 0.4 mg/kg/injection, schedule: Q01DX010 (ip), vehicle: alcohol): 150 % of control
T/C (dose: 0.5 mg/kg/injection, schedule: Q01DX009 (ip), vehicle: saline with Tween-80): 120 % of control
T/C (dose: 0.6 mg/kg/injection, schedule: Q01DX010 (ip), vehicle: alcohol): 166 % of control
T/C (dose: 0.75 mg/kg/injection, schedule: Q01DX009 (ip), vehicle: saline): 120 % of control
T/C (dose: 0.75 mg/kg/injection, schedule: Q03HX008 (ip), vehicle: saline): 110 % of control
T/C (dose: 0.75 mg/kg/injection, schedule: Q03HX016 (ip), vehicle: saline): 120 % of control
T/C (dose: 1.0 mg/kg/injection, schedule: Q01DX009 (ip), vehicle: saline): 100 % of control
T/C (dose: 1.0 mg/kg/injection, schedule: Q01DX010 (ip), vehicle: other): 116 % of control
T/C (dose: 1.0 mg/kg/injection, schedule: Q01DX010 (ip), vehicle: saline): 190 % of control
T/C (dose: 1.5 mg/kg/injection, schedule: Q01DX005 (ip), vehicle: saline): 100 % of control
T/C (dose: 1.5 mg/kg/injection, schedule: Q03HX008 (ip), vehicle: saline): 110 % of control
T/C (dose: 1.5 mg/kg/injection, schedule: Q03HX024 (ip), vehicle: saline): 110 % of control
T/C (dose: 2.0 mg/kg/injection, schedule: Q01DX010 (ip), vehicle: alcohol): 120 % of control
T/C (dose: 2.0 mg/kg/injection, schedule: Q01DX010 (ip), vehicle: other): 120 % of control
T/C (dose: 2.0 mg/kg/injection, schedule: Q01DX010 (ip), vehicle: saline): 190 % of control
T/C (dose: 3.0 mg/kg/injection, schedule: Q01DX005 (ip), vehicle: saline): 120 % of control
T/C (dose: 4.0 mg/kg/injection, schedule: Q01DX010 (ip), vehicle: alcohol): 120 % of control
T/C (dose: 4.0 mg/kg/injection, schedule: Q01DX010 (ip), vehicle: saline): 190 % of control
T/C (dose: 6.0 mg/kg/injection, schedule: Q01DX005 (ip), vehicle: saline): 100 % of control
T/C (dose: 6.0 mg/kg/injection, schedule: Q01DX009 (ip), vehicle: saline): 90 % of control
T/C (dose: 6.0 mg/kg/injection, schedule: Q01DX010 (ip), vehicle: alcohol): 213 % of control
T/C (dose: 6.0 mg/kg/injection, schedule: Q04DX003 (ip), vehicle: saline): 95 % of control
T/C (dose: 6.0 mg/kg/injection, schedule: Q08DX002 (ip), vehicle: saline): 100 % of control
T/C (dose: 8.0 mg/kg/injection, schedule: Q01DX009 (ip), vehicle: saline): 116 % of control
T/C (dose: 8.0 mg/kg/injection, schedule: Q01DX010 (ip), vehicle: other): 158 % of control
T/C (dose: 9.0 mg/kg/injection, schedule: Q01DX010 (ip), vehicle: alcohol): 159 % of control
T/C (dose: 12.0 mg/kg/injection, schedule: Q01DX001 (ip), vehicle: saline): 110 % of control
T/C (dose: 12.0 mg/kg/injection, schedule: Q01DX005 (ip), vehicle: saline): 120 % of control
T/C (dose: 12.0 mg/kg/injection, schedule: Q08DX002 (ip), vehicle: saline): 95 % of control
T/C (dose: 13.0 mg/kg/injection, schedule: Q01DX010 (ip), vehicle: alcohol): 213 % of control
T/C (dose: 24.0 mg/kg/injection, schedule: Q04DX003 (ip), vehicle: saline): 100 % of control
T/C (dose: 24.0 mg/kg/injection, schedule: Q08DX002 (ip), vehicle: saline): 100 % of control
T/C (dose: 48.0 mg/kg/injection, schedule: Q04DX003 (ip), vehicle: saline): 100 % of control
T/C (dose: 48.0 mg/kg/injection, schedule: Q08DX002 (ip), vehicle: saline): 100 % of control
T/C (dose: 96.0 mg/kg/injection, schedule: Q01DX001 (ip), vehicle: saline): 110 % of control
T/C (dose: 96.0 mg/kg/injection, schedule: Q08DX002 (ip), vehicle: saline): 100 % of control
T/C (dose: 192.0 mg/kg/injection, schedule: Q01DX001 (ip), vehicle: saline): 110 % of control
T/C (dose: 57.0 micrograms/kg/injection, schedule: Q01DX010 (ip), vehicle: alcohol): 111 % of control
T/C (dose: 87.0 micrograms/kg/injection, schedule: Q01DX010 (ip), vehicle: alcohol): 107 % of control

Nc1ncnc2c1ncn2C1OC(CO)C(O)C1O.[Cl][Pt][Cl] (centres undefined)
T/C (dose: 100.0 mg/kg/injection, schedule: Q01DX009 (ip), vehicle: water): 115 % of control
T/C (dose: 200.0 mg/kg/injection, schedule: Q01DX009 (ip), vehicle: water): 102 % of control
T/C (dose: 400.0 mg/kg/injection, schedule: Q01DX009 (ip), vehicle: water): 96 % of control

C[C@@H]1C[C@H]2[C@@H]3CCC4=CC(=O)C=C[C@]4(C)[C@@]3(F)[C@@H](O)C[C@]2(C)[C@@]1(O)C(=O)CO
T/C (dose: 6.25 mg/kg/injection, schedule: Q04DX003 (ip), vehicle: saline): 104 % of control
T/C (dose: 12.5 mg/kg/injection, schedule: Q04DX003 (ip), vehicle: saline): 109 % of control
T/C (dose: 16.5 mg/kg/injection, schedule: Q04DX003 (ip), vehicle: saline): 112 % of control and 122 % of control
T/C (dose: 25.0 mg/kg/injection, schedule: Q04DX003 (ip), vehicle: saline sonified): 110 % of control
T/C [1]: 100 % of control and 113 % of control
T/C (dose: 37.5 mg/kg/injection, schedule: Q04DX003 (ip), vehicle: saline): 109 % of control and 112 % of control
T/C (dose: 50.0 mg/kg/injection, schedule: Q04DX003 (ip), vehicle: saline sonified): 110 % of control
T/C [2]: 90 % of control
T/C (dose: 55.0 mg/kg/injection, schedule: Q04DX003 (ip), vehicle: saline): 110 % of control
T/C (dose: 85.0 mg/kg/injection, schedule: Q04DX003 (ip), vehicle: saline): 119 % of control
T/C (dose: 100.0 mg/kg/injection, schedule: Q04DX003 (ip), vehicle: saline sonified): 100 % of control

O=CN1CCCC1C(=O)O (centres undefined)
T/C (dose: 6.25 mg/kg/injection, schedule: Q01DX009 (ip), vehicle: water): 103 % of control
T/C (dose: 12.5 mg/kg/injection, schedule: Q01DX009 (ip), vehicle: water): 99 % of control
T/C (dose: 25.0 mg/kg/injection, schedule: Q01DX009 (ip), vehicle: water): 96 % of control
T/C (dose: 50.0 mg/kg/injection, schedule: Q01DX009 (ip), vehicle: water): 94 % of control

C=CCC(B1OCCO1)B1OCCO1
T/C [1]: 95 % of control
T/C [2]: 90 % of control
T/C [3]: 100 % of control

CC(=O)NC(C)C(=O)NC(C)C(=O)NC(C)C(=O)NC(C)C(=O)O (centres undefined) (Ac-AAAA-OH; configuration not given here)
T/C (dose: 50.0 mg/kg/injection, schedule: Q01DX005 (ip), vehicle: saline with Tween-80): 98 % of control
T/C (dose: 100.0 mg/kg/injection, schedule: Q01DX005 (ip), vehicle: saline with Tween-80): 95 % of control

c1ccc2c3nc(nc2c1)CCCCCCCN3
T/C (dose: 100.0 mg/kg/injection, schedule: Q04DX003 (ip), vehicle: Klucel (hydroxypropylcellulose) (HPC)): 109 % of control
T/C (dose: 200.0 mg/kg/injection, schedule: Q04DX003 (ip), vehicle: Klucel (hydroxypropylcellulose) (HPC)): 94 % of control

Cc1ccc(NC(=O)NCCCOc2ccc(N3C(N)=NC(N)=NC3(C)C)cc2Cl)cc1S(=O)(=O)F
T/C (dose: 45.0 mg/kg/injection, schedule: Q04DX003 (ip), vehicle: saline): 100 % of control
T/C (dose: 50.0 mg/kg/injection, schedule: Q01DX009 (ip), vehicle: saline): 155 % of control
T/C (dose: 65.0 mg/kg/injection, schedule: Q04DX003 (ip), vehicle: saline): 109 % of control
T/C (dose: 75.0 mg/kg/injection, schedule: Q01DX009 (ip), vehicle: saline): 150 % of control and 155 % of control
T/C [3]: 122 % of control
T/C (dose: 110.0 mg/kg/injection, schedule: Q01DX009 (ip), vehicle: saline): 160 % of control
T/C (dose: 150.0 mg/kg/injection, schedule: Q01DX009 (ip), vehicle: saline): 90 % of control
T/C (dose: 200.0 mg/kg/injection, schedule: Q04DX003 (ip), vehicle: saline): 186 % of control
